Data published in paper PMC12420824, “Discovery of a selective alpha-kinase 1 inhibitor for the rare genetic disease ROSAH syndrome” (Nature Communications, 2025).
Several values for one entry are separate records, joined by “and”; a condition that tells them apart may be missing. Equal values may be shown once.

Columns and labels:
CDK8/cyclin C = CDK8/cyclin C (Homo sapiens, UniProt P49336); test: HotSpot kinase assay; conditions: read-out: % Enzyme Activity (relative to DMSO control), 10 uM
From the text: (§1) Additionally, a 10-dose dilution series of staurosporine and other enzyme-appropriate compounds were included as positive control inhibitors.

BTK = BTK (Homo sapiens, UniProt Q06187); test: HotSpot kinase assay; conditions: read-out: % Enzyme Activity (relative to DMSO control), 10 uM
From the text: as §1

CDK3/cyclin E2 = CDK3/cyclin E2 (Homo sapiens, UniProt Q00526); test: HotSpot kinase assay; conditions: read-out: % Enzyme Activity (relative to DMSO control), 10 uM
LYN B = LYN B (Homo sapiens, UniProt P07948); test: HotSpot kinase assay; conditions: read-out: % Enzyme Activity (relative to DMSO control), 10 uM
PKN2/PRK2 = PKN2/PRK2 (Homo sapiens, UniProt Q16513); test: HotSpot kinase assay; conditions: read-out: % Enzyme Activity (relative to DMSO control), 10 uM
From the text: as §1

EPHA7 = EPHA7 (Homo sapiens, UniProt Q15375); test: HotSpot kinase assay; conditions: read-out: % Enzyme Activity (relative to DMSO control), 10 uM
Chain of EPHA7 (Q15375 28-998): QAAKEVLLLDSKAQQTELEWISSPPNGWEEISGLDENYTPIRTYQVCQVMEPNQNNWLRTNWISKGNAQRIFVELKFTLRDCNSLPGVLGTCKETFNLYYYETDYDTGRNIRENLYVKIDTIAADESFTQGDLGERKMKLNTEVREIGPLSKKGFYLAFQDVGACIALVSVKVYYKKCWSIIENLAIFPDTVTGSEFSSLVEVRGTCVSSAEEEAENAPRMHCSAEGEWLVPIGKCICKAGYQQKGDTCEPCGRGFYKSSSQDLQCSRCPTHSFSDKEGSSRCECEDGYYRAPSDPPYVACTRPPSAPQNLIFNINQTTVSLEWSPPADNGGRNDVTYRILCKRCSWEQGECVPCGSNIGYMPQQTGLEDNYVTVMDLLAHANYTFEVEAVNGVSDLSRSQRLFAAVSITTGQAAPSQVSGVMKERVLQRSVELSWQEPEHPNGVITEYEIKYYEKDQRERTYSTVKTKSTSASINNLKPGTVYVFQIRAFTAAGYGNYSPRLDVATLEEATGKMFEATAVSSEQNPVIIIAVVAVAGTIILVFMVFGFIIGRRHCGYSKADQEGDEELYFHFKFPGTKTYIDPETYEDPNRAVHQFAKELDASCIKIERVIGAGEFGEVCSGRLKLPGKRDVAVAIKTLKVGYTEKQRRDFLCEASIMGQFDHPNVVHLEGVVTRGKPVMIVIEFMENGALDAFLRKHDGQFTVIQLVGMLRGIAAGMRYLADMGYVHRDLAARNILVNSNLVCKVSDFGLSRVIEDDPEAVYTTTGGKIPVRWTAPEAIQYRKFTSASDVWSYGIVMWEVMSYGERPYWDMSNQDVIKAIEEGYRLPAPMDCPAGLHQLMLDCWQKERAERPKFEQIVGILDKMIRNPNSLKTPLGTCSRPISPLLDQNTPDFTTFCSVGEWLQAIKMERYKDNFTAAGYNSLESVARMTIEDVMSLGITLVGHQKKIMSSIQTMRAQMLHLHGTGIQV
From the text: as §1

MEK1 = MEK1 (Homo sapiens, UniProt Q02750); test: HotSpot kinase assay; conditions: read-out: % Enzyme Activity (relative to DMSO control), 10 uM
From the text: as §1

AMPK (A2/B1/G2) = AMPK (A2/B1/G2) (Homo sapiens, UniProt P54646); test: HotSpot kinase assay; conditions: read-out: % Enzyme Activity (relative to DMSO control), 10 uM
From the text: as §1

SRPK2 = SRPK2 (Homo sapiens, UniProt P78362); test: HotSpot kinase assay; conditions: read-out: % Enzyme Activity (relative to DMSO control), 10 uM
From the text: as §1

PKAcb = PKAcb (Homo sapiens, UniProt P22694); test: HotSpot kinase assay; conditions: read-out: % Enzyme Activity (relative to DMSO control), 10 uM
From the text: as §1

KHS/MAP4K5 = KHS/MAP4K5 (Homo sapiens, UniProt Q9Y4K4); test: HotSpot kinase assay; conditions: read-out: % Enzyme Activity (relative to DMSO control), 10 uM
PKCg = PKCg (Homo sapiens, UniProt P05129); test: HotSpot kinase assay; conditions: read-out: % Enzyme Activity (relative to DMSO control), 10 uM
From the text: as §1

c-MET = c-MET (Homo sapiens, UniProt P08581); test: HotSpot kinase assay; conditions: read-out: % Enzyme Activity (relative to DMSO control), 10 uM
From the text: as §1

TESK1 = TESK1 (Homo sapiens, UniProt Q15569); test: HotSpot kinase assay; conditions: read-out: % Enzyme Activity (relative to DMSO control), 10 uM
From the text: as §1

SNARK/NUAK2 = SNARK/NUAK2 (Homo sapiens, UniProt Q9H093); test: HotSpot kinase assay; conditions: read-out: % Enzyme Activity (relative to DMSO control), 10 uM
Chain of SNARK/NUAK2 (Q9H093 whole entry): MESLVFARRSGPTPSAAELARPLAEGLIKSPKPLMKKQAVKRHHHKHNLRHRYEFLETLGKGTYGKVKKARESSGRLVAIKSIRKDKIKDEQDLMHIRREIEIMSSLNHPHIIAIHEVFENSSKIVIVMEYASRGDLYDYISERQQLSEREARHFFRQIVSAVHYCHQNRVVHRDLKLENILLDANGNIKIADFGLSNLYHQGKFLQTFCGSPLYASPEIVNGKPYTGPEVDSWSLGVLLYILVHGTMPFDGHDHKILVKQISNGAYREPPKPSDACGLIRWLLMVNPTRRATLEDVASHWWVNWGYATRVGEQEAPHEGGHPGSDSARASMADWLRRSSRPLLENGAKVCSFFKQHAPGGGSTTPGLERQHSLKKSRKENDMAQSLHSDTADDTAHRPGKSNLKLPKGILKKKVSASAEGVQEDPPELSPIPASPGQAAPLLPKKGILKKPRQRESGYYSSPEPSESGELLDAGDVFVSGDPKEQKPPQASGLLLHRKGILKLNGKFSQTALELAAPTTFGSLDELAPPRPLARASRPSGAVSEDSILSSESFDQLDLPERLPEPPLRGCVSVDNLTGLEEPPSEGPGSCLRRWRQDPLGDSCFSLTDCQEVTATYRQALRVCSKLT
From the text: as §1

CTK/MATK = CTK/MATK (Homo sapiens, UniProt P42679); test: HotSpot kinase assay; conditions: read-out: % Enzyme Activity (relative to DMSO control), 10 uM
From the text: as §1

CAMKK2 = CAMKK2 (Homo sapiens, UniProt Q96RR4); test: HotSpot kinase assay; conditions: read-out: % Enzyme Activity (relative to DMSO control), 10 uM
From the text: as §1

MASTL = MASTL (Homo sapiens, UniProt Q96GX5); test: HotSpot kinase assay; conditions: read-out: % Enzyme Activity (relative to DMSO control), 10 uM
From the text: as §1

TAOK1 = TAOK1 (Homo sapiens, UniProt Q7L7X3); test: HotSpot kinase assay; conditions: read-out: % Enzyme Activity (relative to DMSO control), 10 uM
Chain of TAOK1 (Q7L7X3 whole entry): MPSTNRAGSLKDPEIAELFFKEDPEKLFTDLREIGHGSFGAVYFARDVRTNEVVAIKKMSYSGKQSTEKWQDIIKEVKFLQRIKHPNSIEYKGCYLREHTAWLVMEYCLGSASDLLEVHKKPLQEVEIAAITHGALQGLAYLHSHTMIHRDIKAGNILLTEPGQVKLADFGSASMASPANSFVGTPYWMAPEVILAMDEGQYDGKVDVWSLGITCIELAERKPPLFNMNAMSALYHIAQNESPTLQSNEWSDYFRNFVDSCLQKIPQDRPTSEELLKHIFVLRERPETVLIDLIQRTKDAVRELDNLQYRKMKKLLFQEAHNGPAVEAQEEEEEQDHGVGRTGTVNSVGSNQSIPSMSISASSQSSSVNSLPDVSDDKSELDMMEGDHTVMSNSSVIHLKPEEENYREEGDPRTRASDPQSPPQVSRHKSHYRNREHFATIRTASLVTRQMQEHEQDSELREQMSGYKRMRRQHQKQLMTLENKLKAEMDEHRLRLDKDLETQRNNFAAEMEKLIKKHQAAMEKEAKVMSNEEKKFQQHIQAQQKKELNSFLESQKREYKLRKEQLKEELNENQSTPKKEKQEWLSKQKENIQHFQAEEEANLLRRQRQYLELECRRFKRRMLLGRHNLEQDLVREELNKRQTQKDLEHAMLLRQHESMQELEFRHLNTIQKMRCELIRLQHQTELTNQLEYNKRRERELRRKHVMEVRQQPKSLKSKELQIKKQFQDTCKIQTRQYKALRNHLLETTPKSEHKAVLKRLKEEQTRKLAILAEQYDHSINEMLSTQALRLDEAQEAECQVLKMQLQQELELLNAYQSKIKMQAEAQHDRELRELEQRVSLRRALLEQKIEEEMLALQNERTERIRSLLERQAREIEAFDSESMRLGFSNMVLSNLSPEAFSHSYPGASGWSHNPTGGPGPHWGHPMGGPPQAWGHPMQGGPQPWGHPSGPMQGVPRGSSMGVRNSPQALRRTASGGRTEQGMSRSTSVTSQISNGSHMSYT

[1] = system: HEK-293 cells stably overexpressing ALPK1; test: Supernatant CXCL8 ELISA; conditions: ALPK1 OE
Method: In (a) each dot represents a single well measurement. […] Each dot represents the mean of duplicate technical repeats. c NF-κB reporter cells were transiently transfected with plasmids to overexpress human ALPK1 or ALPK1[T237M]. […] Supernatant CXCL8 levels were then measured by ELISA. In c−f data represent the mean ± SEM for the triplicate wells of each treatment group. Statistical outliers were determined using Grubb’s test and indicated in the Source Data file. In (d) statistical comparisons to the wild-type ALPK1-overexpressing stable cell line group were made using the two-tailed unpaired Student’s t-tests. In (b−f) curve fitting and IC50 value calculations were performed with GraphPad Prism 6.
To obtain HEK-293 cells stably overexpressing ALPK1 or ALPK1[T237M], codon-optimized DNA coding sequencing for Flag-tagged human ALPK1 and ALPK1[T237M] were inserted into the pcDNA3.1 vector. Plasmids were transfected into HEK-293 cells using Lipofectamine 2000 as per the manufacturer’s protocol. At 48 h post-transfection, G418 (#A1720, Sigma-Aldrich, St. Louis, MO, USA) was used to select resistant transformed cells, and single-cell clones were prepared through a limiting dilution-based approach. Western blotting (See Below) was used to assess Flag-tagged ALPK1 and ALPK1[T237M] overexpression. […] Cells were then harvested to analyze the expression of CXCL10, TNF, and CXCL8 by qPCR (See Below).

MEKK6 = MEKK6 (Homo sapiens, UniProt O95382); test: HotSpot kinase assay; conditions: read-out: % Enzyme Activity (relative to DMSO control), 10 uM
Chain of MEKK6 (O95382 whole entry): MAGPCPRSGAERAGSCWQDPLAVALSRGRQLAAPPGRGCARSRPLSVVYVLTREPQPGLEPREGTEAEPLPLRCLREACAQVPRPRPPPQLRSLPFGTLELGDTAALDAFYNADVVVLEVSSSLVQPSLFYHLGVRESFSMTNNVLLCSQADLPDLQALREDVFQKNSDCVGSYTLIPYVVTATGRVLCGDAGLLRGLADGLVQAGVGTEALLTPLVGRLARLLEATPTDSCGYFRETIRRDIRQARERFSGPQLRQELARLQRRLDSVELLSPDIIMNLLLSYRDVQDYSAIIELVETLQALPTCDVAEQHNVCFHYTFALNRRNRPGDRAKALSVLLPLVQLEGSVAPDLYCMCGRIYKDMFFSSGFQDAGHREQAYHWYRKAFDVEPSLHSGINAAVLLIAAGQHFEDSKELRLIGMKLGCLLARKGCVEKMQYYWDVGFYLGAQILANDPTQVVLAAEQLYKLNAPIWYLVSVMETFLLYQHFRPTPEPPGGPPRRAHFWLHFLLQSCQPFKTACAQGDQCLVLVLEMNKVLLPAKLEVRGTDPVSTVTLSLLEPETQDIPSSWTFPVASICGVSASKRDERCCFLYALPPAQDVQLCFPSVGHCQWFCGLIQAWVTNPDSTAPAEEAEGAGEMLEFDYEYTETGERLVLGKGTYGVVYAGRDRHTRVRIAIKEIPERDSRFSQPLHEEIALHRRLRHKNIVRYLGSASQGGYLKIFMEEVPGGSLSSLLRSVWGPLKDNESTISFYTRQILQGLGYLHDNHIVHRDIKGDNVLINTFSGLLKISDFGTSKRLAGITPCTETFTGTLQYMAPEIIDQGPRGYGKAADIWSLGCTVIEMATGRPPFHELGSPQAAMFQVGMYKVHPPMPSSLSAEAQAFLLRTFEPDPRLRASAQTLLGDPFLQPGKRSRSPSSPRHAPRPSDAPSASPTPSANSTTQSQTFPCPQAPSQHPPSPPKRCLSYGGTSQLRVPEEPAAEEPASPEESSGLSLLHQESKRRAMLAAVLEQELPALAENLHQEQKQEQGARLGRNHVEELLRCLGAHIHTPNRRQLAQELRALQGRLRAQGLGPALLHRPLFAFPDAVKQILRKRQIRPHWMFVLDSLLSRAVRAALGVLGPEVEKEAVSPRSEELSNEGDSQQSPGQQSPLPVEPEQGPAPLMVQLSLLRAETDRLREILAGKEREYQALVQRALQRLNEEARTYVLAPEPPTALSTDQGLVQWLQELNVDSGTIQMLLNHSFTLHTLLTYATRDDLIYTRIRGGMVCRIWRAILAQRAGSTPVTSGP
From the text: as §1

ALK6/BMPR1B = ALK6/BMPR1B (Homo sapiens, UniProt O00238); test: HotSpot kinase assay; conditions: read-out: % Enzyme Activity (relative to DMSO control), 10 uM
From the text: as §1

TAOK3/JIK = TAOK3/JIK (Homo sapiens, UniProt Q9H2K8); test: HotSpot kinase assay; conditions: read-out: % Enzyme Activity (relative to DMSO control), 10 uM
EIF2AK2 = EIF2AK2 (Homo sapiens, UniProt P19525); test: HotSpot kinase assay; conditions: read-out: % Enzyme Activity (relative to DMSO control), 10 uM
From the text: as §1

PDK1/PDHK1 = PDK1/PDHK1 (Homo sapiens, UniProt Q15118); test: HotSpot kinase assay; conditions: read-out: % Enzyme Activity (relative to DMSO control), 10 uM
ITK = ITK (Homo sapiens, UniProt Q08881); test: HotSpot kinase assay; conditions: read-out: % Enzyme Activity (relative to DMSO control), 10 uM
From the text: as §1

AMPK(A1/B1/G1) = AMPK(A1/B1/G1) (Homo sapiens, UniProt Q13131); test: HotSpot kinase assay; conditions: read-out: % Enzyme Activity (relative to DMSO control), 10 uM
From the text: as §1

EPHB4 = EPHB4 (Homo sapiens, UniProt P54760); test: HotSpot kinase assay; conditions: read-out: % Enzyme Activity (relative to DMSO control), 10 uM
From the text: as §1

CK1a1L = CK1a1L (Homo sapiens, UniProt Q8N752); test: HotSpot kinase assay; conditions: read-out: % Enzyme Activity (relative to DMSO control), 10 uM
Chain of CK1a1L (Q8N752 whole entry): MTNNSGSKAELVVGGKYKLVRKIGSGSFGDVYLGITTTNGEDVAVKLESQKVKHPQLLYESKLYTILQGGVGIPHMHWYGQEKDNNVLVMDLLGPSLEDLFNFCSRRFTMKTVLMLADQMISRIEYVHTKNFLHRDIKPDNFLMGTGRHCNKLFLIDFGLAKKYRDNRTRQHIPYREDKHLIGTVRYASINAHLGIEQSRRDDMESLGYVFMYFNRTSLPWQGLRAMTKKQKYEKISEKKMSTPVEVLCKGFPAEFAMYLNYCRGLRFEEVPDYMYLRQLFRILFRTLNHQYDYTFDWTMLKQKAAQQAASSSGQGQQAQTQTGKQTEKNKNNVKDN

GRK6 = GRK6 (Homo sapiens, UniProt P43250); test: HotSpot kinase assay; conditions: read-out: % Enzyme Activity (relative to DMSO control), 10 uM
From the text: as §1

HIPK2 = HIPK2 (Homo sapiens, UniProt Q9H2X6); test: HotSpot kinase assay; conditions: read-out: % Enzyme Activity (relative to DMSO control), 10 uM
From the text: as §1

NEK1 = NEK1 (Homo sapiens, UniProt Q96PY6); test: HotSpot kinase assay; conditions: read-out: % Enzyme Activity (relative to DMSO control), 10 uM
From the text: as §1

AKT2 = AKT2 (Homo sapiens, UniProt P31751); test: HotSpot kinase assay; conditions: read-out: % Enzyme Activity (relative to DMSO control), 10 uM
From the text: as §1

CK1a1 = CK1a1 (Homo sapiens, UniProt P48729); test: HotSpot kinase assay; conditions: read-out: % Enzyme Activity (relative to DMSO control), 10 uM
From the text: as §1

TIE2/TEK = TIE2/TEK (Homo sapiens, UniProt Q02763); test: HotSpot kinase assay; conditions: read-out: % Enzyme Activity (relative to DMSO control), 10 uM
From the text: as §1

SGK3/SGKL = SGK3/SGKL (Homo sapiens, UniProt Q96BR1); test: HotSpot kinase assay; conditions: read-out: % Enzyme Activity (relative to DMSO control), 10 uM
From the text: as §1

CDK1/cyclin B = CDK1/cyclin B (Homo sapiens, UniProt P06493); test: HotSpot kinase assay; conditions: read-out: % Enzyme Activity (relative to DMSO control), 10 uM
ULK3 = ULK3 (Homo sapiens, UniProt Q6PHR2); test: HotSpot kinase assay; conditions: read-out: % Enzyme Activity (relative to DMSO control), 10 uM

With `C#C[C@@](C)(c1ccc(Cl)cc1)c1csc(NC(=O)c2c(F)cc(N3CCNCC3)cc2F)n1` (stereo in doubt) [DF-003] as the compound, how does the remaining activity at 10 µM (CDK8/cyclin C) read?
The remaining activity at 10 µM was 92.9%.

And the remaining activity at 10 µM (BTK)?
Its remaining activity at 10 µM is 76.8%.

And the remaining activity at 10 µM (CDK3/cyclin E2)?
The remaining activity at 10 µM was 103%.

What about the remaining activity at 10 µM (LYN B) of the same compound?
Its remaining activity at 10 µM is 143%.

What about the remaining activity at 10 µM (PKN2/PRK2) of the same compound?
The remaining activity at 10 µM was 61.3%.

What about the remaining activity at 10 µM (EPHA7) of the same compound?
The remaining activity at 10 µM was 105%.

And the remaining activity at 10 µM (MEK1)?
Its remaining activity at 10 µM is 102%.

What about the remaining activity at 10 µM (AMPK (A2/B1/G2)) of the same compound?
Its remaining activity at 10 µM is 82.9%.

What about the remaining activity at 10 µM (SRPK2) of the same compound?
Its remaining activity at 10 µM is 126%.

What about the remaining activity at 10 µM (PKAcb) of the same compound?
The remaining activity at 10 µM was 91.6%.

And the remaining activity at 10 µM (KHS/MAP4K5)?
The remaining activity at 10 µM was 77.5%.

What about the remaining activity at 10 µM (PKCg) of the same compound?
The remaining activity at 10 µM was 93.5%.

What about the remaining activity at 10 µM (c-MET) of the same compound?
Its remaining activity at 10 µM is 90.7%.

What about the remaining activity at 10 µM (TESK1) of the same compound?
Its remaining activity at 10 µM is 82.9%.

And the remaining activity at 10 µM (SNARK/NUAK2)?
Its remaining activity at 10 µM is 124%.

What about the remaining activity at 10 µM (CTK/MATK) of the same compound?
Its remaining activity at 10 µM is 80.2%.

What about the remaining activity at 10 µM (CAMKK2) of the same compound?
Its remaining activity at 10 µM is 98.9%.

And the remaining activity at 10 µM (MASTL)?
Its remaining activity at 10 µM is 90.6%.

What about the remaining activity at 10 µM (TAOK1) of the same compound?
Its remaining activity at 10 µM is 16.8%.

What about the “Supernatant CXCL8 level (ELISA)” value ([1]; Log [DF-003 (nM)] 0.3035) of the same compound?
The value was 652.652 and 657.101 and 652.360.

What about the “Supernatant CXCL8 level (ELISA)” value ([1]; Log [DF-003 (nM)] 0.8032) of the same compound?
The value was 717.775 and 649.393 and 582.315.

And the “Supernatant CXCL8 level (ELISA)” value ([1]; Log [DF-003 (nM)] 1.3029)?
Its value is 735.124 and 626.517 and 638.135.

And the “Supernatant CXCL8 level (ELISA)” value ([1]; Log [DF-003 (nM)] 2.8020)?
The value was 0.000.

And the “Supernatant CXCL8 level (ELISA)” value ([1]; Log [DF-003 (nM)] 3.3017)?
The value was 0.000.

What about the “Supernatant CXCL8 level (ELISA)” value ([1]; Log [DF-003 (nM)] 3.8013) of the same compound?
The value was 0.000.

And the “Supernatant CXCL8 level (ELISA)” value ([1]; Log [DF-003 (nM)] -0.1962)?
Its value is 619.393 and 689.438 and 663.124.

And the remaining activity at 10 µM (MEKK6)?
Its remaining activity at 10 µM is 73.4%.

What about the remaining activity at 10 µM (ALK6/BMPR1B) of the same compound?
The remaining activity at 10 µM was 123%.

What about the remaining activity at 10 µM (TAOK3/JIK) of the same compound?
Its remaining activity at 10 µM is 21.7%.

And the remaining activity at 10 µM (EIF2AK2)?
The remaining activity at 10 µM was 105%.

And the remaining activity at 10 µM (PDK1/PDHK1)?
Its remaining activity at 10 µM is 101%.

What about the remaining activity at 10 µM (ITK) of the same compound?
Its remaining activity at 10 µM is 71.2%.

What about the remaining activity at 10 µM (AMPK(A1/B1/G1)) of the same compound?
Its remaining activity at 10 µM is 119%.

What about the remaining activity at 10 µM (EPHB4) of the same compound?
Its remaining activity at 10 µM is 85.6%.

What about the remaining activity at 10 µM (CK1a1L) of the same compound?
Its remaining activity at 10 µM is 97.2%.

What about the remaining activity at 10 µM (GRK6) of the same compound?
Its remaining activity at 10 µM is 117%.

And the remaining activity at 10 µM (HIPK2)?
Its remaining activity at 10 µM is 101%.

What about the remaining activity at 10 µM (NEK1) of the same compound?
Its remaining activity at 10 µM is 106%.

And the remaining activity at 10 µM (AKT2)?
The remaining activity at 10 µM was 93.6%.

What about the remaining activity at 10 µM (CK1a1) of the same compound?
The remaining activity at 10 µM was 90.5%.

And the remaining activity at 10 µM (TIE2/TEK)?
The remaining activity at 10 µM was 79.5%.

And the remaining activity at 10 µM (SGK3/SGKL)?
The remaining activity at 10 µM was 84.3%.

And the remaining activity at 10 µM (CDK1/cyclin B)?
Its remaining activity at 10 µM is 99.5%.

And the remaining activity at 10 µM (ULK3)?
Its remaining activity at 10 µM is 114%.
